Structures are written as SMILES.

`CCCCNC(=O)Nc1cccc(-c2ccnc3c(C(=O)c4cccs4)cnn23)c1`: the melting point (usually the temperature, or range, at which the solid turns liquid) was 158 to 160 °C.
`CN(C)CC(C)(C)CNc1ncc2cc(-c3c(Cl)cccc3Cl)c(NC(=O)NC(C)(C)C)nc2n1` showed a melting point of 161 to 170 °C.
Then `N=C(N)NCCCCC(=O)Nc1ccc(OCc2ccccc2)c(C(=O)NCCC(=O)O)c1`, with 242 to 245 °C.
Regarding `CCOC(Cc1cnc2ccc(OCc3ccc([N+](=O)[O-])cc3)cc2c1)C(=O)O` (centres undefined), the melting point was in the range of 169 to 174 °C.
Then `O=Cc1c(-c2ccccc2F)ccc2c1OCO2`, with 84 to 86 °C; and `COc1cc(C(C)C)ccc1C1COc2c(C)c(C)c(N)c(C)c21` (centres undefined), with 120 to 121 °C; and `CCOC(=O)c1sc(Cl)nc1-c1ccc(Cl)cc1`, with 119 to 120 °C.
Then `NS(=O)(=O)c1ccc([C@H]2[C@H](C(=O)Nc3ccc(C(F)(F)F)cc3)C23CCCC3)cc1` (relative stereo), with 234 to 236 °C; and `CCC1(CC)OC(=O)c2cc(N)ccc21`, with 153 to 154 °C.
`CCCCc1nc2c(N)nc3ccccc3c2n1CCCCCS(C)=O` (centres undefined) returned a melting point of 119 to 121 °C.
`CCN(c1nc(C)cc(C)n1)c1c(O)cc(OC)cc1Br` displayed a melting point of 157 to 160 °C.
The compound `CSC(=NCCSCc1ccsn1)NC#N` yielded a melting point of 85 to 87 °C.
`CCn1ccnc1S(N)(=O)=O` displayed a melting point of 123 to 125 °C.
In turn, `CCOC(=O)C(CC=C(C)C=CC1=C(C)CCCC1(C)C)C(C)=O` (centres undefined) gave a melting point of 152 °C.
Compound `COc1ccc2c(c1)OCC(NC(=O)c1cc(Cl)ccc1OC)C2` (centres undefined) displayed a melting point of 92 to 93 °C.
Then `COc1cccc2c1CC1c3c(cc(OC)c(OC)c3-2)CCN1C` (centres undefined), with 184 to 185 °C.
Regarding `Clc1cnn(CCCCN2CCN(c3ccccc3)CC2)c1`, the melting point lay within 58 to 61 °C.
In turn, `N#Cc1cc(Cn2cncn2)cc(-c2ccc(O)cc2)c1` showed a melting point of 186 to 187 °C.
Turning to `CCOC(=O)c1nc2c(=O)[nH]c3cc(C(F)(F)F)ccc3n2c1CNc1ccc2c(c1)OCO2`, the melting point is greater than 250 °C.
Turning to `CC(=O)SCCC(=O)OC(=O)CO`, the melting point lay in the range of 150 to 157 °C.
Then `Cc1cc(Cl)ccc1N1CCCN(C)C1=S`, with 143 to 145 °C; and `CCOC=Nc1ccc2nnc(-c3ccc([N+](=O)[O-])s3)n2n1`, with 180 to 182 °C; and `Cc1nc(C)c(-c2ccnc(Nc3cccc(S(=O)(=O)NCCO)c3)n2)s1`, with 184 to 186 °C.
`O=C1N[C@H](Cc2ccc(F)cc2)[C@H](c2ccc(C(F)(F)F)cc2)O1` (racemic): the melting point fell in the range of 160 to 161 °C.
Turning to `O=C(O)Cc1cnn(-c2ccccc2)c1-c1ccc(Cl)cc1`, the melting point lay within 185 to 186 °C.
Then `Oc1ccc(CCN2CCC(=C3c4sccc4CCn4ccnc43)CC2)cc1`, with greater than 200 °C; and `O=C(O)c1ccncc1C(=O)c1cc(F)ccc1F`, with 214 to 216 °C; and `CN(C)CC(=O)Nc1cccc2c1C(=O)c1c-2n[nH]c1-c1ccc(N2CCNCC2)cc1`, with 243 °C.
The compound `O=C/C(=C/c1ccccc1)c1ccc(Cl)cc1` returned a melting point of 70 to 75 °C.
Then `CCCCCCCCCCCCCCCCCc1nnc2n1-c1sc(CC)cc1C(c1ccc(C)cc1)=NC2`, with 78 to 80 °C; and `CCN=C(NC(=O)OC(C)(C)C)Nc1cc(C(C)c2ccc(-c3ccccc3)c(F)c2)no1` (centres undefined), with 87 to 92 °C; and `CCOC(=O)c1c[nH]c2nc(N3CCC(N)C3)c(F)cc2c1=O` (centres undefined), with 139 to 141 °C.
`CC(CCNC1=Nc2ccc(S(=O)(=O)N(C)C)c3cccc1c23)n1ccnc1` (centres undefined) came in with a melting point of 221 to 222 °C.
`Nc1ncnc2c1c(-c1cc(F)c(O)c(F)c1)nn2Cc1oc2ccc(F)cc2c(=O)c1-c1cccc(F)c1` displayed a melting point of 274 to 278 °C.
With `Cc1nn(-c2ccc(C(F)(F)F)cn2)cc1COc1ccc(OCC(=O)O)cc1`, the melting point was 138 to 139 °C.
Take `O=C1C=C(C(F)(F)F)N(Br)CN1c1ccc(C(F)(F)F)cn1`: the melting point was in the range of 142 to 143 °C.
`CCC[C@@H](C)C(C(=O)O)C(=O)O` returned a melting point of 95 °C.
Then `COc1ccc2c(c1)CC(O)C2` (centres undefined), with 67 to 69 °C; and `CCOCc1nc2cnc3cc(Br)ccc3c2n1CCN1CCN(C(=O)OC(C)(C)C)CC1`, with 140 to 143 °C.
Compound `CN1CCN(c2cc(NC(=O)OC(C)(C)C)c([N+](=O)[O-])cc2C#Cc2ccccc2)CC1` yielded a melting point of 170 °C.
`NC(=O)CCCON1CCNC1=Nc1c(Cl)cccc1Cl` registered a melting point of 140 to 141 °C.
Compound `Cc1ccccc1NC(=O)Nc1ccc(CC(=O)NC(CC(C)C)C2=NOC(CCC(=O)O)(CCC(=O)O)C2)cc1` (centres undefined) came in with a melting point of 173 to 175 °C.
Regarding `CCc1nc(-c2cc(Cl)c(O)c(Cl)c2)no1`, the melting point turned out to be 126 °C.
Then `COc1cc(CNC(=O)c2oc(=O)c3ncccc3c2-c2ccc(C)cc2)cc(OC)c1OC`, with 195 to 196 °C.
Compound `CC(C)(C)C(=O)N1CCSC1=S` gave a melting point of 48 to 50 °C.
In the case of `CCc1ccc(-c2ccc(I)cc2)cc1`, the melting point lay within 145 to 149 °C.
In turn, `CC(C)(C)NNC(=S)c1ccccc1` had a melting point of 165 to 168 °C.
Then `Cc1cc(-c2ccc(C(=N)NO)o2)ccc1Br`, with 239 °C.
`CN(C)CCCn1c(=O)c2c(N)c3c(=O)c4ccccc4c(=O)c3c(N)c2c1=O` showed a melting point of 215 to 216 °C.
For `CC(O)c1nc(N)nc(N)c1-c1ccc(Cl)cc1` (centres undefined), the melting point was found to be 159 °C.
Compound `CCCCc1nc(CO)c(C(=O)N2CCC[C@H]2C(=O)OC)n1Cc1ccc(-c2ccccc2C(=O)O)cc1` gave a melting point greater than 120 °C.
Then `COc1cc(CN)nc(SC)n1`, with 35 to 38 °C; and `Clc1nsnc1-c1ccccc1`, with 33 °C.
Then `CC(CCOc1c(-c2ccc(S(C)(=O)=O)cc2)cnn(-c2ccc(F)c(F)c2)c1=O)C(F)(F)F` (centres undefined), with 126 to 128 °C; and `O=C(O)c1ccc(C(=O)O)c(O)c1`, with greater than 300 °C; and `CN1C(=O)CC[C@]2(C)c3ccc(-c4ccc(NC(=O)C(C)(C)C)cc4)cc3CC[C@@H]12`, with greater than 265 °C.
Consider `CC(C)(C)OC(=O)C1CSC(C2CC3CCC2C3)N1C(=O)CNC(=O)Nc1cccc(CC(=O)O)c1` (mixture of isomers), for which the melting point worked out at 115 °C.
Then `O=C(O)CC=C(c1ccccc1)c1ccc(F)cc1`, with 98 to 100 °C.
Then `O=C1Nc2ccccc2N(C(=O)CN2CCCC(CN3CCCCC3)C2)c2ccccc21` (centres undefined), with 150 to 152 °C; and `CN1CCN(C(=O)c2cc([N+](=O)[O-])cc3c2OCCO3)CC1`, with 218 °C.
Then `O=C(O)Cc1c(C(=O)c2ccc(Cl)cn2)[nH]c2cc(Cl)ccc12`, with 242 to 244 °C; and `CSc1c(Cl)c(O)nn1C`, with 163 to 165 °C; and `O=S(=O)(Nc1cccc(OCc2ncc3ccccc3n2)c1)C(F)(F)F`, with 140 to 150 °C.
The compound `C[C@@H](n1cnc2c(Cl)cc(Cl)cc2c1=O)[C@](O)(Cn1cncn1)c1ccc(F)cc1F` yielded a melting point of 158 to 160 °C.
`CCCC[C@H](NC(=O)C(CS)C(F)(F)F)C(=O)O` (some centres undefined): the melting point is 96 to 98 °C.
Then `CC(NC(=S)NCc1ccc(C(C)(C)C)cc1)c1ccc(NS(C)(=O)=O)cc1` (centres undefined), with 101 °C; and `Cc1cc(C(=O)N2CCC3(CC2)CSC2=C(O3)c3ccccc3C(=O)C2=O)nn1C`, with 184 to 185 °C.
Then `CCCCCCCCCCCCc1ccc(COc2cc(C(=O)O)nc3ccc(C)cc23)cc1`, with 95 to 96 °C; and `CCC(=O)N(C)c1nc(Cl)c([N+](=O)[O-])s1`, with 132 to 133 °C.
In turn, `COc1ccc(-c2c(-c3ccncc3)sc3nc(=O)cc(N)n23)cc1` had a melting point of 267 to 271 °C.
As to `COc1cc2c(C)c(C#N)c(SC)nc2cc1OC(C)=O`, the melting point was in the range of 225 to 230 °C.
Then `COc1cccc(CS[C@H]2C[C@@H](C(N)=O)N(C)C2)c1`, with 113 to 114 °C; and `O=C1Nc2ccccc2N(C(=O)N2CCCC(CCN3CCCCC3)C2)c2ncccc21` (centres undefined), with 168 to 169 °C.
Then `CSc1sc(C(=O)N2CCCCCC2)c2c1-c1oncc1C(C)(C)C2`, with 99 to 101 °C; and `CC(C)(C)Nc1c[nH]c2ccccc12`, with 137 to 142 °C.
Then `O=[N+]([O-])c1cc(Cl)cc(O)c1O`, with 108 to 111 °C; and `O=C(c1cc2ccccc2o1)c1ccc(O)c(Cl)c1Cl`, with 163 °C.
For `CCC(CC)Nc1nc(NC(C)=O)nc(C(C)(C)F)n1`, the melting point lay within 109 to 111 °C.
Then `CN(C)C1(c2ccccc2)CCC(CC(=O)NCCCCc2c[nH]c3ccccc23)CC1` (centres undefined), with 186 °C; and `COc1ccc2[nH]cc(CC3=CCCN(CCCC(O)c4ccc(F)cc4)C3)c2c1` (centres undefined), with 160 to 170 °C.
Then `Cc1cc(C(=O)Nc2ccc(S(=O)(=O)C(F)(F)F)cc2Cl)c(O)c(C23CC4CC(CC(C4)C2)C3)c1`, with 203 to 204 °C; and `O=c1[nH]c2cc(C(F)(F)F)c([N+](=O)[O-])cc2n1-c1cc(Cl)cc(Br)c1O`, with 262 to 264 °C; and `O=C(c1ccccc1)N1CCC(C(Nc2ccc(F)cc2)c2ccc(F)cc2)CC1` (centres undefined), with 157 to 158 °C.
On to `CC(C)N1CCC(CN2CCN(CC3CCN(C(C)C)CC3)C2=C(C#N)C#N)CC1`, for which the melting point lay within 172 to 174 °C.
Then `C=C(C)[C@@H]1CC(=O)[C@H](C)[C@H]1c1nc2c([nH]1)c(=O)n(CCC)c(=O)n2CCC`, with 136 to 137 °C; and `CC(C)c1ccc2c(c1)C(=O)c1ccccc1C2=O`, with 53 to 54 °C.
Regarding `O=C(O)[C@H](Cc1ccc(C(F)(F)F)cc1)[C@@H](O)c1ccc(Cl)nc1` (racemic), the melting point lay in the range of 145 to 146 °C.
The compound `Nc1nc2c(c(Nc3ccc(F)cc3)n1)-c1ccccc1C2` showed a melting point of 205 to 206 °C.
Regarding `CC(=O)Oc1cccc(C(=O)Nc2ccc3ccc(Cl)nc3n2)c1`, the melting point came to 207 °C.

The values above are taken from a melting point compilation (Tetko et al.; mined from patent text by program, amines drawn as free bases though some values may be those of a salt).
